Earlier results, collected in patent US20180009934A1, “HIGH […] […] RESINS” (priority 2016, published 2018).

Conditions: monomer property, Table 1; species and route not given

Structure (SMILES) | Toxicity LD50 [mg/kg]
C=Cc1ccccc1 [STYRENE, styrene] | >2000
C=Cc1ccc(C(C)(C)C)cc1 [Monomer 1, 4-tert butyl styrene] | >2000
